Earlier results as cited in patent publication US20120129153A1, “Diagnostic method for the prediction of the development and control of the effectiveness of the treatment of oncological illnesses” (priority 2010, published 2012).

What was measured:
[1] = tested on: EBV-associated nasopharyngeal carcinomas; conditions: EBV-associated nasopharyngeal carcinomas in athymous mice
[2] = tested on: neuroblastomal cells infected by HCMV; conditions: HCMV-infected neuroblastomal cells resistant to cysplatin and etoposide; virus reproduction blocked with Ganciclovir

| SMILES | induction of apoptosis in EBV-transformed epithelial cells [1] | sensitivity of the cells to the action of anti-tumor drugs [2] |
| --- | --- | --- |
| Nc1ccn(C[C@@H](CO)OCP(=O)(O)O)c(=O)n1 [Cidofovir, (S)-1-(3-hydroxy-2-phpsphonyl-methoxypropyl)cytosine] | causes a quick induction of apoptosis |  |
| Nc1nc(O)c2ncn(COC(CO)CO)c2n1 [Ganciclovir] |  | fully restored |
